Laboratory results: patent publication US10882856B2 (BeiGene, Ltd., priority 2017, dated 2021)

Columns and labels:
IDO1 [1] = target: T1, IDO1 (Homo sapiens, UniProt P14902); assay: IDO1 enzymatic assay; assay type: biochemical; parameters: His tag (N); made in house; host or cells: E. coli; conditions: read-out: Enzyme IC50 IDO1
Procedure, shortened: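 Compound was incubated with 50 nM His-tagged IDO1 from E. coli, 1.3 mM D-tryptophan, 5 mM L-ascorbic acid, methylene blue and 0.4 mg/mL catalase in 50 mM potassium phosphate pH 7.5, 0.1% BSA, at 24 °C for 1.5 hours. Activity was the slope of N'-formylkynurenine formation read continuously at 321 nm for 1 hour. IC50 was obtained from remaining activity versus compound concentration.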

[2] = target: T2, cellular TDO2 in HEK293-TDO2 cells (Homo sapiens, UniProt P48775); assay: 293-TDO2 cell-based assay (Kyn colorimetric); conditions: 48 hours of incubation
T2 construct: expressed in transfected cells; host or cells: HEK293 (ATCC), stably transfected
Procedure, shortened: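 HEK293 cells stably expressing TDO2 (10000/well, phenol red-free DMEM, 10% FBS) were dosed 4 h after plating and incubated 48 h at 37° C. Supernatant Kyn was measured after TCA precipitation by 4-(dimethylamino)benzaldehyde colour at 480 nm. IC50 came from four-parameter logistic fits.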

IDO1 [3] = target: T1, IDO1; assay: Hela cell-based IDO1 assay; conditions: Hela cells
Procedure, shortened: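 HeLa cells were plated at 8000 per well in 96-well plates containing phenol red-free DMEM with 10% FBS, and after 4 hours compound dilutions made in DMSO were added together with IFN-γ (final 100 ng/mL) and 0.4 mM L-Trp before 48 hours at 37 °C, 5% CO2. Supernatants were deproteinised with trichloroacetic acid, mixed with 2% 4-(dimethylamino)benzaldehyde and read at 480 nm for kynurenine. Four-parameter logistic fits were run in XLfit. Potency was derived from these fits.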

T2 sequence (P48775 whole entry): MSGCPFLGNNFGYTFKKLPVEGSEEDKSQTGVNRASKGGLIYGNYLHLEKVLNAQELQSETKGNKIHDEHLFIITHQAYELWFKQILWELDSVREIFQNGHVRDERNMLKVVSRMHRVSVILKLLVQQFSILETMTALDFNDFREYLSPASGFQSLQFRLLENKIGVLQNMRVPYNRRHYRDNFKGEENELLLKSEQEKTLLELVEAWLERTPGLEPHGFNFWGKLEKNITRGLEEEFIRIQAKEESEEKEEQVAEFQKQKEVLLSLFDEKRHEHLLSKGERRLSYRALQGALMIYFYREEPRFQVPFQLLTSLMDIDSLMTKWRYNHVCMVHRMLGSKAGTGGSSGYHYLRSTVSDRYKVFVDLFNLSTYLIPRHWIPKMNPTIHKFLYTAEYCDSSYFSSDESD
T1 sequence (P14902 whole entry): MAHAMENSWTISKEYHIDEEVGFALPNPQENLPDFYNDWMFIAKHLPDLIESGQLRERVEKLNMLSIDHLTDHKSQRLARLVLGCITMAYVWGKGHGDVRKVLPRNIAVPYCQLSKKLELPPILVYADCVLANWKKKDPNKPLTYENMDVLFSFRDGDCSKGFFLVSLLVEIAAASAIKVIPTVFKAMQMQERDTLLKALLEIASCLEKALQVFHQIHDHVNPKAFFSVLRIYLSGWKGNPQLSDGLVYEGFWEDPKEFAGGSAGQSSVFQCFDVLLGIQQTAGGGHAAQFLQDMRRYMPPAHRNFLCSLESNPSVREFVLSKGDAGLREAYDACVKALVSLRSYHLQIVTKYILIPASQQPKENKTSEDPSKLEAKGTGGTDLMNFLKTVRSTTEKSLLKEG

| Structure (SMILES) | IC50 (IDO1 [1]) | EC50 [2] | EC50 (IDO1 [3]) |
| --- | --- | --- | --- |
| Oc1ccc(C2CCC(C(O)c3c(C4CC4)ccn4cncc34)CC2)cc1 (racemic) [Example C104] | 36 nM | > 10000 nM | 82 nM |
| OC(c1c(C2CC2)ccc2cncn12)C1CCC(c2ccnc3c(F)cccc23)CC1 (stereo not drawn) [Example D164, (6-cyclopropylimidazo[1,5-a]pyridin-5-yl)(4-(8-fluoroquinolin-4-yl)cyclohexyl)methanol] | 33 nM | > 10000 nM | 51 nM |
| COc1ccc([C@H]2CC[C@H]([C@@H](O)c3c(C4CC4)ccn4cncc34)CC2)cc1 [Example C101b, (R)-(7-cyclopropylimidazo[1,5-a]pyridin-8-yl)(4-(4-methoxyphenyl)cyclohexyl)methanol] | 9400 nM | > 10000 nM | > 10000 nM |
| OC(c1c(C2CC2)ccn2cncc12)C1CCN(c2ccccc2)CC1 (single isomer, unassigned) [Example C136a] | 21 nM | > 10000 nM | 47 nM |
| CC(=O)COc1ccc([C@H]2CC[C@H]([C@H](O)c3c(C4CC4)ccc4cncn34)CC2)cc1 [Example D151, 1-(4-((1 S,4r)-4-((S)-(6-cyclopropylimidazo[1,5-a]pyridin-5-yl)(hydroxy)methyl)cyclohexyl)phenoxy)propan-2-one] | 15 nM | > 10000 nM | 33 nM |
| O[C@@H](c1c(C2CC2)ccc2cncn12)C1CCN(c2ccc(F)cc2)CC1 (single isomer, unassigned) [Example D171b] | 8260 nM | > 10000 nM | 5740 nM |
| N#Cc1ccc(N2CCC(C(O)c3c(C4CC4)ccn4cncc34)CC2)cc1 (single isomer, unassigned) [Example C144a] | 19 nM | > 10000 nM | 476 nM |
| OC(c1c(C2CC2)ccn2cncc12)C1CCC(c2ccc(OC3CCCC3)cc2)CC1 (stereo not drawn) [Example C118, (4-(4-(cyclopentyloxy)phenyl)cyclohexyl)(7-cyclopropylimidazo[1,5-a]pyridin-8-yl)methanol] | 120 nM | > 10000 nM | 259 nM |
| OC(c1c(C2CC2)ccn2cncc12)C1CCC(c2ccc(OC(F)(F)F)cc2)CC1 (racemic) [Example C105] | 210 nM | > 10000 nM | 2010 nM |
| CNC(=O)c1ccc([C@H]2CC[C@H]([C@H](O)c3c(C4CC4)ccc4cncn34)CC2)cc1 (single isomer, unassigned) [Example D124a] | 19 nM | > 10000 nM | 138 nM |
| CC(=O)Nc1ccc([C@H]2CC[C@H]([C@H](O)c3c(C4CC4)ccc4cncn34)CC2)cc1 [Example D159, N-(4-((1S,4r)-4-((S)-(6-cyclopropylimidazo[1,5-a]pyridin-5-yl)hydroxy)methylcyclohexyl)phenyl)acetamide] | 12 nM | > 10000 nM | 80 nM |
| COc1ccc(N2CCC(C(O)c3c(C4CC4)ccn4cncc34)CC2)cc1 (stereo not drawn) [Example C142, (7-cyclopropylimidazo[1,5-a]pyridin-8-yl)(1-(4-methoxyphenyl)piperidin-4-yl)methanol] | 32 nM | > 10000 nM | 267 nM |
| Cc1ccc([C@H]2CC[C@H]([C@@H](O)c3c(C4CC4)ccn4cncc34)CC2)cc1 (single isomer, unassigned) [Example C110b] | > 10000 nM | > 10000 nM | > 10000 nM |
| O[C@H](c1c(C2CC2)ccc2cncn12)[C@H]1CC[C@H](c2ccc3ncccc3c2)CC1 (single isomer, unassigned) [Example D157a] | 15 nM | > 10000 nM | 52 nM |
| OC(c1c(C2CC2)ccn2cncc12)C1CCN(c2ccnc3ccc(F)cc23)CC1 (stereo not drawn) [Example C151, (7-cyclopropylimidazo[1,5-a]pyridin-8-yl)(1-(6-fluoroquinolin-4-yl)piperidin-4-yl)methanol] | 35 nM | > 10000 nM | 373 nM |
| OC(c1c(C2CC2)ccn2cncc12)C1CCN(c2ccccc2)CC1 (stereo not drawn) [Example C136, (7-cyclopropylimidazo[1,5-a]pyridin-8-yl)(1-phenylpiperidin-4-yl)methanol] | 74 nM | > 10000 nM | 29 nM |
| Oc1ccc(C2CCC(C(O)c3c(C4CC4)ccc4cncn34)CC2)cc1 (stereo not drawn) [Example D106, 4-(4-((6-cyclopropylimidazo[1,5-a]pyridin-5-yl)(hydroxy)methyl)cyclohexyl)phenol] | 30 nM | > 10000 nM | 68 nM |

| Structure (SMILES) | IC50 (IDO1 [1]) | EC50 [2] | EC50 (IDO1 [3]) |
| --- | --- | --- | --- |
| COc1cccc([C@H]2CC[C@H]([C@@H](O)c3c(C(C)C)ccc4cncn34)CC2)c1 (single isomer, unassigned) [Example D169b] | 7500 nM | > 10000 nM | 5950 nM |
| OC(c1c(C2CC2)ccc2cncn12)C1CCC(c2cc(F)cc(F)c2)CC1 (stereo not drawn) [Example D144, (6-cyclopropylimidazo[1,5-a]pyridin-5-yl)(4-(3,5-difluorophenyl)cyclohexyl)methanol] | 42 nM | > 10000 nM | 96 nM |
| OC(c1c(C2CC2)ccc2cncn12)[C@H]1CC[C@H](c2csc3ccccc32)CC1 (single isomer, unassigned) [Example D155a] | 28 nM | > 10000 nM | 27 nM |
| OC(c1c(C2CC2)ccc2cncn12)C1CCC(c2ccc(F)cc2Cl)CC1 (stereo not drawn) [Example D130, (4-(2-chloro-4-fluorophenyl)cyclohexyl)(6-cyclopropylimidazo[1,5-a]pyridin-5-yl)methanol] | 50 nM | > 10000 nM | 279 nM |
| OC(c1c(C2CC2)ccn2cncc12)C1CCN(c2ccncc2)CC1 (stereo not drawn) [Example C147, (7-cyclopropylimidazo[1,5-a]pyridin-8-yl)(1-(pyridin-4-yl)piperidin-4-yl)methanol] | 2300 nM | > 10000 nM | > 10000 nM |
| OC(c1c(C2CC2)ccc2cncn12)C1CCC(c2ccc(-c3ccccc3)cc2)CC1 (stereo not drawn) [Example D119, (4-([1,1′-biphenyl]-4-yl)cyclohexyl)(6-cyclopropylimidazo[1,5-a]pyridin-5-yl)methanol] | 64 nM | > 10000 nM | 668 nM |
| OC(c1c(C2CC2)ccc2cncn12)C1CCN(c2ccc(Cl)cc2)CC1 (stereo not drawn) [Example D174, (1-(4-chlorophenyl)piperidin-4-yl)(6-cyclopropylimidazo[1,5-a]pyridin-5-yl)methanol] | 38 nM | > 10000 nM | 167 nM |
| OC(c1c(C2CC2)ccc2cncn12)C1CCC(c2ccc(F)c(F)c2)CC1 (stereo not drawn) [Example D126, (6-cyclopropylimidazo[1,5-a]pyridin-5-yl)(4-(3,4-difluorophenyl)cyclohexyl)methanol] | 40 nM | > 10000 nM | 64 nM |
| OC(c1c(C2CC2)ccn2cncc12)C1CCC(c2cccc(Cl)c2)CC1 (stereo not drawn) [Example C133, (4-(3-chlorophenyl)cyclohexyl)(7-cyclopropylimidazo[1,5-a]pyridin-8-yl)methanol] | 88 nM | > 10000 nM | 256 nM |
| N#Cc1ccc(C2CCC(C(O)c3c(C4CC4)ccn4cncc34)CC2)cc1 (racemic) [Example C106, 4-(4-((7-cyclopropylimidazo[1,5-a]pyridin-8-yl)(hydroxy)methyl)cyclohexyl)benzonitrile] | 50 nM | > 10000 nM | 429 nM |
| O[C@@H](c1c(C2CC2)ccc2cncn12)C1CCC(c2csc3ccccc23)CC1 (single isomer, unassigned) [Example D155b] | 9000 nM | > 10000 nM | 5630 nM |
| OC(c1c(C2CC2)ccc2cncn12)C1CCC(c2ccc3cccnc3c2)CC1 (stereo not drawn) [Example D161, (6-cyclopropylimidazo[1,5-a]pyridin-5-yl)(4-(quinolin-7-yl)cyclohexyl)methanol] | 34 nM | > 10000 nM | 263 nM |
| OC(c1cc(Cl)cc2cncn12)C1CCC(c2ccc3ccccc3c2)CC1 (stereo not drawn) [Example E104, (7-chloroimidazo[1,5-a]pyridin-5-yl)(4-(naphthalen-2-yl)cyclohexyl)methanol] | 80 nM | > 10000 nM | 5440 nM |
| OC(c1c(C2CC2)ccc2cncn12)C1CCC(c2cccc(F)c2F)CC1 (stereo not drawn) [Example D132, (6-cyclopropylimidazo[1,5-a]pyridin-5-yl)(4-(2,3-difluorophenyl)cyclohexyl)methanol] | 55 nM | > 10000 nM | 378 nM |
| OC(c1c(C2CC2)ccn2cncc12)C1CCC(c2ccc3c(c2)OCO3)CC1 (stereo not drawn) [Example C123, (4-(benzo[dl][1,3]dioxol-5-yl)cyclohexyl)(7-cyclopropylimidazo[1,5-a]pyridin-8-yl) methanol] | 15 nM | > 10000 nM | 372 nM |
| OC(c1c(C2CC2)ccc2cncn12)C1CCC(c2ccc(C(F)(F)F)nc2)CC1 (stereo not drawn) [Example D107, (6-cyclopropylimidazo[1,5-a]pyridin-5-yl)(4-(6-(trifluoromethyl)pyridin-3-yl)cyclohexyl)methanol] | 30 nM | > 10000 nM | 1480 nM |
